Measurements as given in PubChem BioAssay (NCI).
Several values for one entry are separate records, joined by “and”; a condition that tells them apart may be missing. Equal entries are not always repeated.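 1) Cells in 96-well plates. 2) Compound, 48 h, 5 concentrations. 3) Linear interpolation between surrounding doses. 4) Unreached endpoint = highest concentration. Abbreviation: GI50, concentration required for 50% inhibition of growth. TGI marks complete inhibition of growth.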

Columns and labels:
Assay in all cases: inhibition of tumour cell growth, NCI panel, 48 h
[1] = system: HS 578T breast
[2] = system: LOX IMVI melanoma
[3] = system: M14 melanoma
[4] = system: NCI-H23 lung
[5] = system: OVCAR-3 ovarian
[6] = system: OVCAR-8 ovarian
[7] = system: SF-268 CNS
[8] = system: SK-MEL-2 melanoma
[9] = system: SK-MEL-28 melanoma
[10] = system: SN12C renal

| SMILES | GI50 [1] | TGI [1] [µM] | GI50 [2] | TGI [2] [µM] | GI50 [3] [µM] | TGI [3] [µM] | GI50 [4] | TGI [4] [µM] | GI50 [5] [µM] | TGI [5] [µM] | GI50 [6] | TGI [6] [µM] | GI50 [7] | TGI [7] [µM] | GI50 [8] | TGI [8] [µM] | GI50 [9] | TGI [9] [µM] | GI50 [10] | TGI [10] [µM] |
| --- | --- | --- | --- | --- | --- | --- | --- | --- | --- | --- | --- | --- | --- | --- | --- | --- | --- | --- | --- | --- |
| COC(=O)[C@]12CC[C@@H](C)[C@H](C)[C@@H]1C1=CC[C@@H]3[C@@]4(C)C(C=O)=C[C@@](C)(COC(=O)c5ccco5)C4=CC[C@@]3(C)[C@]1(C)CC2 | 3.72 µM | 34.1 | 1.7 µM | 3.15 | 0.104 | 6.93 | 3.25 µM | 25.7 | 2.17 | 4.76 | 3.67 µM | 15.9 | 2.93 µM | 9.92 | 0.273 µM | 0.743 | 0.053 µM | 3.01 | 4.04 µM | > 100 |
| CC(C(=O)c1ccc(O)cc1)C1(O)C(=O)Nc2c(Cl)cc(Cl)cc21 (stereo not drawn) |  |  |  | > 67.8 |  | > 61.2 |  | > 100 |  | > 84.3 |  | > 100 |  | > 100 |  | > 100 |  | 78.1 |  | > 100 |
| COC(=O)c1ccc(N/C=C(/C#N)c2ccsc2)cc1 |  |  |  |  |  |  |  | 24.5 |  | 23.1 |  | 19.5 |  | 37 |  | 50.7 |  | 45.6 |  |  |
| O=C(Cc1ccc(-c2ccc(OCCN3CCOCC3)cc2)cn1)NCc1ccccc1 | 0.0381 µM and 0.0284 µM | > 100 | 0.0612 µM and 0.0636 µM | > 100 | 0.0285 | 1.76 | 0.0458 µM and 0.0493 µM | > 100 | 0.0352 |  | 0.0466 µM and 0.0493 µM | > 36.2 | 0.083 µM and 0.332 µM | > 100 | 0.105 µM and 0.06 µM | > 100 | 0.0462 µM and 0.211 µM | > 100 | 0.0845 µM and 0.0611 µM | > 100 |
| Cc1cc(O)cc(-c2nn(C)cc2-c2cc(N3CCOCC3)nc(-c3cccnc3)n2)c1 | 2.04 µM | 9.06 | 4.16 µM | 27.3 | 3.55 | 15.8 | 5.31 µM | 60.3 | 2.48 | 12.5 | 7.11 µM | > 100 | 7.29 µM | > 100 | 6.28 µM | 31.1 | 3.8 µM | 21.1 | 5.51 µM | > 100 |
| COc1ccc(C2C(C(=O)O)=C(CO)Oc3cc4c(cc32)OCO4)c(OC)c1 (stereo not drawn) |  |  |  | > 100 |  | > 100 |  | > 100 |  | > 100 |  | > 100 |  |  |  |  |  | > 100 |  | > 100 |
| COc1ccc(-c2cncn2-c2ccc(-c3nc4cc(OC)c(OC)c(OC)c4s3)cc2)cc1N | 28.3 µM | > 100 | 4.75 µM | > 100 | 5.91 | > 100 | 4.76 µM | > 100 | 5.18 | > 100 | 6.19 µM | > 100 | 47 µM | > 100 | 6.04 µM | > 100 | 13.7 µM | > 100 | 9.44 µM | > 100 |
| Nc1ncc(-c2ccc3ncnc(N4CCc5cc(F)c(Cl)cc54)c3c2)cc1C(F)(F)F | 0.298 µM | 2.54 |  |  | 2.74 | > 100 | 2.93 µM | > 100 | 1.39 | > 100 | 2.34 µM | > 100 | 1.24 µM | > 100 | 2.84 µM | > 100 | 2.04 µM | > 100 | 0.754 µM | > 100 |
| CN(C)C(=S)/N=C(\N)N(C)C |  |  |  | > 100 |  | > 100 |  | > 100 |  |  |  | > 100 |  | > 100 |  | > 100 |  | > 100 |  | > 100 |
| CNC(=O)NCCCCC(NC(=O)OCc1ccccc1)C(=O)OCc1ccccc1 (stereo not drawn) |  |  |  | 31.3 |  | 31.3 |  | 67.4 |  | 32.1 |  | 67.2 |  |  |  | 61.1 |  | 60.6 |  | 51.1 |
| CCSc1nnc(-c2ccc3ccccc3c2O)n1-c1ccccc1 | > 100 µM | > 100 |  |  |  |  | > 100 µM | > 100 | > 100 | > 100 |  |  | 8.02 µM | > 100 |  |  | > 100 µM | > 100 | > 100 µM | > 100 |
| CC(C)(C)CC(C)(C)c1cc2c(O)c(c1)Cc1cc(C(C)(C)CC(C)(C)C)cc(c1O)Cc1cc(C(C)(C)CC(C)(C)C)cc(c1O)Cc1cc(C(C)(C)CC(C)(C)C)cc(c1O)Cc1cc(C(C)(C)CC(C)(C)C)cc(c1O)Cc1cc(C(C)(C)CC(C)(C)C)cc(c1O)Cc1cc(C(C)(C)CC(C)(C)C)cc(c1O)Cc1cc(C(C)(C)CC(C)(C)C)cc(c1O)C2 |  |  |  |  |  | > 100 |  | > 100 |  | > 100 |  | > 100 |  | > 100 |  | > 100 |  | > 100 |  | > 100 |
| C=CC(=O)OCCCS(=O)(=O)[O-].C=CC(=O)OCCCS(=O)(=O)[O-].NC1CCCCC1N.[Pt+4] |  |  | > 25 µM | > 25 | > 25 | > 25 | > 25 µM | > 25 | > 25 | > 25 | > 25 µM | > 25 | > 25 µM | > 25 | > 25 µM | > 25 | > 25 µM | > 25 | > 25 µM | > 25 |
| CC1=C(C(=O)NCc2ccccc2)C(c2ccc(N(C)C)cc2)C(C(=O)NCc2ccccc2)=C(C)N1 |  |  |  |  |  | > 100 |  | > 100 |  | > 100 |  | > 100 |  |  |  | > 100 |  | > 100 |  | > 100 |
| O=C(/C=C/c1ccco1)N1CCN(Cc2ccccc2)CC1 |  |  |  | > 100 |  | > 100 |  | > 100 |  | > 100 |  | > 100 |  | > 100 |  |  |  | > 100 |  | > 100 |
| COc1cc2ccnc(-c3n[nH]c4cc(OC)c(OC)cc34)c2cc1OC |  |  |  | > 100 |  | > 100 |  | > 100 |  | > 100 |  | > 100 |  | > 100 |  | > 100 |  | > 100 |  | > 100 |
| CC(C)=CC1(C)/C(=N\O)C(C)(CC(C)C)C(=O)N1O (stereo not drawn) |  |  |  | > 100 |  | > 100 |  | > 100 |  | > 100 |  | > 100 |  |  |  | > 100 |  | > 100 |  | > 100 |
| NC(CCSCCF)C(=O)O (stereo not drawn) |  |  |  | > 100 |  | > 100 |  | > 100 |  | > 100 |  |  |  | > 100 |  | > 100 |  | > 100 |  | > 100 |
